According to ChEMBL document CHEMBL1201862, “PubChem BioAssay data set” (2004):
Calls of active or inactive are those of the source.

Columns and labels:
[1] = reduction of Shn3 3'UTR-driven luciferase in osteoblasts – cell-based, Clone20 osteoblasts, firefly luciferase, cherry-picked, dose response (AID 624132); format: functional;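 further: firefly luciferase luminescence from reporter carrying the Shn3 3'UTR in osteoblasts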
[2] = Luminescence-based counterscreen assay for KLF5 inhibitors: dose response cell-based high throughput screening assay to identify cytotoxic compounds using the IEC-6 intestinal epithelial cell line. [Related pubchem assays: 1700 (Primary screen.), 1834 (Confirmation screen.), 1858 (Summary AID.), 1905 (Counterscreen.)]; format: functional
[3] = Shn3 3'UTR reporter signal decrease – cell-based, Clone20 osteoblasts, firefly luciferase, cherry-pick, set 2, Schnurri-3 inhibitor project, dose response (AID 720490); format: functional;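 further: actives lower the luminescence signal as inhibitors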
[4] = biological target: Photoreceptor-specific nuclear receptor (Homo sapiens, UniProt Q9Y5X4); format: functional, cell-based;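 further: CHO-S cells with Gal4-NCOR and VP16-NR2E3 two-hybrid luciferase reporter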
Sequence of Photoreceptor-specific nuclear receptor (Q9Y5X4 whole entry, the tested form may be a part): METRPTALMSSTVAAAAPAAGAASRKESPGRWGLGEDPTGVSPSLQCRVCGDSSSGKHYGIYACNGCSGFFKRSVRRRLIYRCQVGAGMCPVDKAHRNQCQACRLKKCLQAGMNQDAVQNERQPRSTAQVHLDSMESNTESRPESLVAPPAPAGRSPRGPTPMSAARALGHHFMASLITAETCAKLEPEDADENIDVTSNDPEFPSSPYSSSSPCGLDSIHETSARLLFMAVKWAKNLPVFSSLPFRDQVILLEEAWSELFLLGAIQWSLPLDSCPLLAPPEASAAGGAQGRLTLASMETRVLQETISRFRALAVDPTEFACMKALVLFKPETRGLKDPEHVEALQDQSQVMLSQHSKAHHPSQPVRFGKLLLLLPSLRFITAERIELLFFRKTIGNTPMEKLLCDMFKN

[5] = biological target: T1, Microphthalmia-associated transcription factor (Homo sapiens, UniProt O75030); assay: reducers of TRPM1 reporter luminescence, concentration series – cell-based, SK-MEL-5, cherry-picked, set 3, MITF inhibitor project, dose response (AID 493073); format: functional;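 further: SK-MEL-5 melanoma cells with luciferase driven by the MITF target TRPM1 promoter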
T1 sequence (O75030 whole entry): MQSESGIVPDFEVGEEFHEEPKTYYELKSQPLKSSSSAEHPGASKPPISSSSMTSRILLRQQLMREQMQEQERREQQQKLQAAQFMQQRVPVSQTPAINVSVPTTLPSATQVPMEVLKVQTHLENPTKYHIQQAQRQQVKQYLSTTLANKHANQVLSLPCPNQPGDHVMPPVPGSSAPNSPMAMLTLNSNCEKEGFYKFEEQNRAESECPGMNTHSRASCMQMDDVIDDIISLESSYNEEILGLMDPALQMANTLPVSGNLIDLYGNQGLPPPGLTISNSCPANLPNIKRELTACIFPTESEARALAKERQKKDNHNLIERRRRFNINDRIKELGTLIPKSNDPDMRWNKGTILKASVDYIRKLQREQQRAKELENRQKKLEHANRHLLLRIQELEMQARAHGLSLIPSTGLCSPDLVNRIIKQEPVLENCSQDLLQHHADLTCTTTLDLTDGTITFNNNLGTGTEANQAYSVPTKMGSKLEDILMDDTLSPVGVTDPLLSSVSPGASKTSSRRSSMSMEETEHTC

[6] = loss of viability in HepG2 cells – cell-based, CellTiter-Glo, cherry-picked, cytotoxicity control for Shn3 inhibitor project, dose response (AID 624134); format: functional
Protein skinhead-1 = biological target: T2, Protein skinhead-1 (Caenorhabditis elegans, UniProt P34707); format: functional
T2 sequence (P34707 whole entry): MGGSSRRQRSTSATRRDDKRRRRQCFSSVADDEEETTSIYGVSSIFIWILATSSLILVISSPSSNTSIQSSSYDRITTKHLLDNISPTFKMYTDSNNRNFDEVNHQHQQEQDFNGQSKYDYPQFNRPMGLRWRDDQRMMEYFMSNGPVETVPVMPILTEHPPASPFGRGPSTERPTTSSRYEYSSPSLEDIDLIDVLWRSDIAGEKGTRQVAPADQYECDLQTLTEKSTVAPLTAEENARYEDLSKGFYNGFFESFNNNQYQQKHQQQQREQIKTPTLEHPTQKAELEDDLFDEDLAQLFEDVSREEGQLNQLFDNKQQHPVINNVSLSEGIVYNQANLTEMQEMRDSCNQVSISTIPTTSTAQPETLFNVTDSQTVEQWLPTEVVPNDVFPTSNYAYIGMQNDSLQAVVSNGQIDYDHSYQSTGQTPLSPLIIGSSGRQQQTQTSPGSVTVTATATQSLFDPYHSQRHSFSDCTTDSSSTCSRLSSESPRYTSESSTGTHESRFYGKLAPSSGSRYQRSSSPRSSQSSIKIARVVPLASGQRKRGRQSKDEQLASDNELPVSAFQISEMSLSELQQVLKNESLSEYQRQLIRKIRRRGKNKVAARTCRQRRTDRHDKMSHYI

[7] = biological target: Muscarinic acetylcholine receptor M5 (Homo sapiens, UniProt P08912); assay: (§1) Discovery of novel allosteric modulators of the M1 muscarinic receptor: Agonist NMS competition at M5. [Related pubchem assays: 1488 (Discovery of novel allosteric modulators of the M1 muscarinic receptor: Agonist Confirmation Assay), 626 (Discovery of Novel Allosteric Modulators of the M1 Muscarinic Receptor: Agonist Primary Screen)]; format: functional
Sequence of Muscarinic acetylcholine receptor M5 (P08912 whole entry): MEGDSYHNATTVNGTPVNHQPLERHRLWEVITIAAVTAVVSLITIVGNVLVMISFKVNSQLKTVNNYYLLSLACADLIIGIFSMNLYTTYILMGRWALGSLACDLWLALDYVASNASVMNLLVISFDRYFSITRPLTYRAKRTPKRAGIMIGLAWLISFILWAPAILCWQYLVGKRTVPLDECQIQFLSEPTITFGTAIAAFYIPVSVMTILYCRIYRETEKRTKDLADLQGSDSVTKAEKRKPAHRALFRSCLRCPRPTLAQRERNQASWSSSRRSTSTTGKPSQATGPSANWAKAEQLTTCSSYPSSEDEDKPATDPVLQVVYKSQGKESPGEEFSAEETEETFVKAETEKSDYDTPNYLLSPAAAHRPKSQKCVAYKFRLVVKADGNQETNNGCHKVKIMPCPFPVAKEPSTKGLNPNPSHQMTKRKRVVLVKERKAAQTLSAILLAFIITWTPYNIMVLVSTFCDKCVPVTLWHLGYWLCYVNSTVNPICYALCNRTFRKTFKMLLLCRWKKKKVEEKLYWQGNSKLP

[8] = biological target: Muscarinic acetylcholine receptor M1 (Rattus norvegicus, UniProt P08482); assay: Discovery of novel allosteric modulators of the M1 muscarinic receptor: Agonist NMS binding at M1. [Related pubchem assays: 626 ]
Sequence of Muscarinic acetylcholine receptor M1 (P08482 whole entry): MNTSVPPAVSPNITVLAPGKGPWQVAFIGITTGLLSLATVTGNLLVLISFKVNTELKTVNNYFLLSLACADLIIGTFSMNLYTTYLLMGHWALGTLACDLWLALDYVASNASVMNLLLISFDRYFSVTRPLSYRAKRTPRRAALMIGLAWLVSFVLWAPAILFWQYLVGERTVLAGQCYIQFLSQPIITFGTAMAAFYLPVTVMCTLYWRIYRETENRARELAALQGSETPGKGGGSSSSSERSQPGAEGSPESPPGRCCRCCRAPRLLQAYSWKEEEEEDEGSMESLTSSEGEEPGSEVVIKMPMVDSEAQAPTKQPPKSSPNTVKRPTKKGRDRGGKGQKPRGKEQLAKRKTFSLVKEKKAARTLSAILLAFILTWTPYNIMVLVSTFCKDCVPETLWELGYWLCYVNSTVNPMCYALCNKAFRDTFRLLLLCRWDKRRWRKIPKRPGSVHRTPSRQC

[9] = biological target: Muscarinic acetylcholine receptor M2 (Homo sapiens, UniProt P08172); assay: Discovery of novel allosteric modulators of the M1 muscarinic receptor: Agonist NMS competition at M2. [Related pubchem assays: 626 (Discovery of Novel Allosteric Modulators of the M1 Muscarinic Receptor: Agonist Primary Screen), 1488 (Discovery of novel allosteric modulators of the M1 muscarinic receptor: Agonist Confirmation Assay)]; format: functional
Sequence of Muscarinic acetylcholine receptor M2 (P08172 whole entry): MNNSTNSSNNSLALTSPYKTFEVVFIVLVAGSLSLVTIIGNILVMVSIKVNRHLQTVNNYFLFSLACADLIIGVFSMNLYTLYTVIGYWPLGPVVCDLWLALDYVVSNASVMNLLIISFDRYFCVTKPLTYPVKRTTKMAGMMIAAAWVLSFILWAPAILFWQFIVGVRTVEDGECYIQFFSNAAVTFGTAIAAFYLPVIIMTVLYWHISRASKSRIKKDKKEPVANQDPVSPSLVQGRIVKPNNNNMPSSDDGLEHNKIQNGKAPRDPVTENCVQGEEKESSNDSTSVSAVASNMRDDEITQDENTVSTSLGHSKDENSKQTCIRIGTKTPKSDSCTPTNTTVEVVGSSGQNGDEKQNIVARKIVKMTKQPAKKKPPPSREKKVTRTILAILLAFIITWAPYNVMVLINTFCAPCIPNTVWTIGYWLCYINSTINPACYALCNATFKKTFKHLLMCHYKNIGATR

[10] = biological target: Muscarinic acetylcholine receptor M4 (Rattus norvegicus, UniProt P08485); assay: Discovery of novel allosteric modulators of the M1 muscarinic receptor: Agonist NMS competition at M4. [Related pubchem assays: 626, 1488, 1741 ]; format: functional
Sequence of Muscarinic acetylcholine receptor M4 (P08485 whole entry): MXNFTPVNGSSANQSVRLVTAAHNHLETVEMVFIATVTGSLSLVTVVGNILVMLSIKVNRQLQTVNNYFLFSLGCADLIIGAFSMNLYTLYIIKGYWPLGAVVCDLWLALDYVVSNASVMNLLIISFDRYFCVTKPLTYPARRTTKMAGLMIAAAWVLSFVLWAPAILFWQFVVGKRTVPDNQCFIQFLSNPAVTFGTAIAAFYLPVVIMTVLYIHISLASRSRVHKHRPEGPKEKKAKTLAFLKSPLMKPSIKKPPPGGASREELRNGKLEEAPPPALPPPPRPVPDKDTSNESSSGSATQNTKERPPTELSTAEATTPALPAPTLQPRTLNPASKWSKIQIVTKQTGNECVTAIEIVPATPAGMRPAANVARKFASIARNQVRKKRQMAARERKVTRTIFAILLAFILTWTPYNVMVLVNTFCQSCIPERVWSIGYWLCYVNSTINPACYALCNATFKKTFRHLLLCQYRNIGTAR

[11] = biological target: Muscarinic acetylcholine receptor M3 (Homo sapiens, UniProt P20309); assay: as §1, with “M3.” for “M5.”; format: functional
Sequence of Muscarinic acetylcholine receptor M3 (P20309 whole entry): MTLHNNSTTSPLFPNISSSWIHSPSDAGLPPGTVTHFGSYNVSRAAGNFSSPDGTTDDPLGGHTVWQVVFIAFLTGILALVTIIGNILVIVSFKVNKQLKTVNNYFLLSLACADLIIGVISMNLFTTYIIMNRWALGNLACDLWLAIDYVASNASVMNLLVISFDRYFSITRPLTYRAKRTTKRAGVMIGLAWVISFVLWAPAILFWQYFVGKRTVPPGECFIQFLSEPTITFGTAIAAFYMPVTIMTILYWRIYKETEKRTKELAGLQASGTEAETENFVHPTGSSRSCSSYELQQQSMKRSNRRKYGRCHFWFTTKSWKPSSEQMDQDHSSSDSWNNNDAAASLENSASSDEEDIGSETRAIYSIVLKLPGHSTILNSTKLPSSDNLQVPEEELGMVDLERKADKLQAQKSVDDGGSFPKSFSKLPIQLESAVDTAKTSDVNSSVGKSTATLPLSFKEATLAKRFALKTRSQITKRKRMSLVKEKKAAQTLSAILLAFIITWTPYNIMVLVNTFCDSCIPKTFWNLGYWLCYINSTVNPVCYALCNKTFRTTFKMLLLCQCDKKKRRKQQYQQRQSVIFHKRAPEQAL

[12] = alpha-synuclein stem-loop luciferase translation blockers – H4 neuroglioma cells, luminescence, confirmation (AID 1988); format: functional, cell-based
[13] = luciferase reporter signal suppression in cells – H4 neuroglioma cells, luminescence, dose response (AID 1990); format: functional, cell-based
[14] = Luminescence Cell-Based Dose Response HTS to Identify Inhibitors of 5'UTR Stem-Loop Driven Prion Protein mRNA Translation in H4 Neuroglioblastoma Cells. [Related pubchem assays: 1827 (Project Summary), 1813 (Primary HTS)]; format: functional
NS3 = NS3 (Hepatitis C virus, UniProt A3EZJ3); assay: PubChem AID 2173; design: species or system Hepacivirus hominis
Sequence of NS3 (A3EZJ3 whole entry): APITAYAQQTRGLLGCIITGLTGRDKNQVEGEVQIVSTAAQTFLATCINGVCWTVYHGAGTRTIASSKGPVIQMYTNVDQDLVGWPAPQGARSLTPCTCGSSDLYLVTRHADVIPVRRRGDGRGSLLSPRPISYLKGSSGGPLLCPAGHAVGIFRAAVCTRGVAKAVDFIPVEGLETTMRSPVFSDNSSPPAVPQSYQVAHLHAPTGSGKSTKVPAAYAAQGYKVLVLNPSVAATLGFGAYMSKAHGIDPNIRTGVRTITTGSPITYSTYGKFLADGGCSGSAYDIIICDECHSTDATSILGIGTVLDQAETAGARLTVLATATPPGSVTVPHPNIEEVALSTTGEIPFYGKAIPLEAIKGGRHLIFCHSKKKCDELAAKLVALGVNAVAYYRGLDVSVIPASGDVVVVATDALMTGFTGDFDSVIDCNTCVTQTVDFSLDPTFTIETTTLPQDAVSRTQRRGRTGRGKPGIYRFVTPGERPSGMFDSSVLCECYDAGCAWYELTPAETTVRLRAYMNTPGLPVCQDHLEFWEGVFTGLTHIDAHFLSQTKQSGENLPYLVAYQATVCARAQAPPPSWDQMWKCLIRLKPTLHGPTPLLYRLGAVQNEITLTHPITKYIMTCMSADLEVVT

[15] = viability loss in Vero cells – cytotoxicity control for Vif-APOBEC3G degradation inhibitor project, dose response (AID 1117358); format: functional; details: Vero
Streptococcus [16] = assay: GAS UMAA2166 growth inhibition – luminescence, BacTiterGlo, counter-screen for streptokinase expression inhibitor project, dose response (AID 1915); format: functional, organism-based;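 further: potency for reduction of bacterial viability or growth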
[17] = antiviral protection against BTV-induced cell death – arbovirus, BSR cells, confirmation (AID 1250); format: functional;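 further: protection from viral cytopathic effect measured as cell viability by ATP luminescence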
[18] = viability loss of HPDE-C7K cells – cell-based, fluorescence, HTS, primary screen (AID 431); format: functional; details: Homo sapiens
[19] = HPDE-C7 pancreatic duct cell viability loss – fluorescence, HTS (AID 430); format: functional, cell-based; details: Homo sapiens
[20] = tested on: Streptococcus sp. 'group A'; assay: Streptococcus pyogenes SK(-)GAS viability under kanamycin – luminescence, BacTiterGlo, confirmation, counter-screen for streptokinase expression inhibitor project, dose response (AID 1900); format: functional, organism-based
Cytochrome P450 2D6 = Cytochrome P450 2D6 (Homo sapiens, UniProt P10635); assay: qHTS Assay for Inhibitors and Substrates of Cytochrome P450 2D6. [Related pubchem assays: 410 ]; format: ADME; details: read-out: Potency
Sequence of Cytochrome P450 2D6 (P10635 whole entry): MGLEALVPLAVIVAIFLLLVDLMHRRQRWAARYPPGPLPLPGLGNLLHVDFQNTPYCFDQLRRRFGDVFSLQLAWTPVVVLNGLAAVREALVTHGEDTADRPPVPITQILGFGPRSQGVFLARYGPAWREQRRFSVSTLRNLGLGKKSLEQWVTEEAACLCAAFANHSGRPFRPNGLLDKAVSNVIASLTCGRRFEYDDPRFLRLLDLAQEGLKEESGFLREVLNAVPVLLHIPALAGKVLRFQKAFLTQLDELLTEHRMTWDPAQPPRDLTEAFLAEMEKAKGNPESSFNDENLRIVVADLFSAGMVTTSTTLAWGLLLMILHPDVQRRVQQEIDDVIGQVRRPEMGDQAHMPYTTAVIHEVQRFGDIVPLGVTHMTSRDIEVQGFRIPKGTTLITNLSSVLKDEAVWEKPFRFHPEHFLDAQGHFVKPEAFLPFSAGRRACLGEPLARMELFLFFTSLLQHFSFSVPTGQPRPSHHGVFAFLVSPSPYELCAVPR

[21] = mitochondrial function rescue without frataxin homolog – Friedreich's ataxia, plus single-dose screen, dose response (AID 1465); format: functional;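 further: yeast depleted of Yfh1p frataxin homolog grown on glycerol needing respiration; WST-1 tetrazolium dye reduction as measure of cellular dehydrogenase metabolic activity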
Leucine aminopeptidase = biological target: T3, Leucine aminopeptidase (Plasmodium falciparum 3D7, UniProt Q8IL11); assay: P. falciparum M17LAP inhibitors, primary screen, biochemical, fluorogenic H-Leu-NHMec substrate, 1536-well (AID 1619); format: functional
T3 sequence (Q8IL11 whole entry): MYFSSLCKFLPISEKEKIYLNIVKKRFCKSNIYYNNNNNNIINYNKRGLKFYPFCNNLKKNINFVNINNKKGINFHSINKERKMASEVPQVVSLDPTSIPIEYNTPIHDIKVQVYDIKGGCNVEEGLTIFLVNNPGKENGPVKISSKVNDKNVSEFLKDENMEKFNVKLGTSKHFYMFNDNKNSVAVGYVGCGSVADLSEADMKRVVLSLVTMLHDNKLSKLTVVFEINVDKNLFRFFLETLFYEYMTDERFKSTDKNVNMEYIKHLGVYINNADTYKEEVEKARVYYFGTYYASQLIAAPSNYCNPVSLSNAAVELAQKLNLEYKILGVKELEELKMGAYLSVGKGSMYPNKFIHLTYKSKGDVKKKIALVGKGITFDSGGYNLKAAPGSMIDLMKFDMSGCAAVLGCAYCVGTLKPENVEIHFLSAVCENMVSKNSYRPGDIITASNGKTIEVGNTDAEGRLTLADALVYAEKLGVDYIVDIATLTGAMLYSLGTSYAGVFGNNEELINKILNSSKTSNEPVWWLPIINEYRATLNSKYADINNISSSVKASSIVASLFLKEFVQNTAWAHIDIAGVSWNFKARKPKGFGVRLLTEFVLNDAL

[22] = Counterscreen for IDE inhibitors: Luminescence-based cell-based high throughput dose response assay to identify compounds that are cytotoxic to HEK cells. [Related pubchem assays: 434962 (Primary screen (IDE inhibitors in singlicate)), 449730 (Counterscreen (Cytotoxicity in triplicate)), 435028 (Confirmation (IDE inhibitors in triplicate)) …; format: functional; details: HEK293
Insulin-degrading enzyme = biological target: T4, Insulin-degrading enzyme (Homo sapiens, UniProt P14735); assay: Dose Response: Fluorescence polarization-based cell-based high throughput dose response assay for inhibitors of insulin-degrading enzyme (IDE). [Related pubchem assays: 434962 (Primary screen (IDE inhibitors in singlicate)), 449730 (Counterscreen (Cytotoxicity in triplicate)), 435028 (Confirmation (IDE inhibitors in triplicate)), 434984 (Summary …; format: functional
T4 sequence (P14735 whole entry): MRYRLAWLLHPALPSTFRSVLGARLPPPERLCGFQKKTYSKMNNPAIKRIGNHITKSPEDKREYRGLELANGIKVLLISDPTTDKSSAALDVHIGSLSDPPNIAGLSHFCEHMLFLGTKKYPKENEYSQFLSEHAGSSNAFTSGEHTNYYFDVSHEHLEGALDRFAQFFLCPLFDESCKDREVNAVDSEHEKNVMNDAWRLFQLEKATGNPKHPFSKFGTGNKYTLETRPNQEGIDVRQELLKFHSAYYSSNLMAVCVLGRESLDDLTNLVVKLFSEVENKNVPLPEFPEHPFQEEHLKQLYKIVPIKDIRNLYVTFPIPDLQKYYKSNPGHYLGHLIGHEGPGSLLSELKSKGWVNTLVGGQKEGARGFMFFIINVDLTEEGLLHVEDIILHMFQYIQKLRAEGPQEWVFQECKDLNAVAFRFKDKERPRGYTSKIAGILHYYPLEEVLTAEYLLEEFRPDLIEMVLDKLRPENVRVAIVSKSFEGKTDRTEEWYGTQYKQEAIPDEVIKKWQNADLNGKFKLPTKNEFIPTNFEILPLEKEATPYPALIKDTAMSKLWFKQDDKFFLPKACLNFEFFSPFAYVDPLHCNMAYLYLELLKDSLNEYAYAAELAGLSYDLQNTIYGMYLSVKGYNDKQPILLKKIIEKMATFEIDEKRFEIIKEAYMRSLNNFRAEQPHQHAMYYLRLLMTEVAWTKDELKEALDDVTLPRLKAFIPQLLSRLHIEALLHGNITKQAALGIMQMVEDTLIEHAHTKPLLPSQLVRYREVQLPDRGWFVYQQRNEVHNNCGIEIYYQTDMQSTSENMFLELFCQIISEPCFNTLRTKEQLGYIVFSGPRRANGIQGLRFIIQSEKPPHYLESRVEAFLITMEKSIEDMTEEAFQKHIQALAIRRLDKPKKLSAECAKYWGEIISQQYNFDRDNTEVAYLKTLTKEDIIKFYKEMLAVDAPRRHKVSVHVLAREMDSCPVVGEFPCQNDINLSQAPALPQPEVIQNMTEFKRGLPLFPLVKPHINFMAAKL

[23] = A Cell Based Secondary Assay To Explore Cytotoxicity of Compounds that Sensitize Mycobacterium Tuberculosis to Beta-Lactam Antibiotics.; format: functional
Streptococcus [24] = assay: Luminescence Microorganism-Based Dose Response Follow up to Identify Compounds Cytotoxic to Streptococcus. [Related pubchem assays: 1677 (Project Summary), 1915, 1914, 1902 (Retest at Dose), 1900 (Counter Screen), 1662 (Primary HTS)]; format: functional, organism-based

## CC(C)(C)C(=O)Nc1cc2nn(-c3ccccc3)nc2cc1Cl
[1]
  AC50: 5.16 µM (active)
[2]
  IC50: > 39.8 µM (not active)
[3]
  AC50: 49.5 µM (active)
[4]
  IC50: 0.152 µM (active)
[5]
  AC50: 0.495 µM (active)
[6]
  AC50: > 70 µM (inactive)
Protein skinhead-1
  IC50: > 100 µM (inactive)

## CCOC(=O)N1CCC(NCCNC(=O)c2ccccc2C)CC1
[7]
  EC50: 24.1 µM (inconclusive)
[8]
  EC50: 25.1 µM (inconclusive)
[9]
  EC50: 95.7 µM (inconclusive)
[10]
  EC50: 240 µM (inconclusive)
[11]
  EC50: 360 µM (inconclusive)

## O=c1c2c(-c3ccco3)csc2nc(SCc2cn3cccnc3n2)n1-c1ccccc1
[12]
  EC50: 38.5 µM (active)
[13]
  EC50: 13.9 µM (active)
[14]
  EC50: > 120 µM (not active)
NS3
  IC50: 49.7 µM (not active)
[15]
  CC50: > 40 µM (active)

## CCOC(=O)C1=Nc2ccccc2C1=[N+]=[N-]
Streptococcus [16]
  EC50: 2.27 µM (active)
[17]
  IC50: 21.4 µM (active)
[18]
  EC50: 7.83 µM (active)
[19]
  EC50: 19.9 µM (active)
[20]
  EC50: 0.379 µM (active)

## CCOC(=O)OCC1OC(C#Cc2ccccc2)C=CC1Oc1cccc(N(C)C)c1 (centres undefined)
Cytochrome P450 2D6
  AC50: 3.98 µM (inconclusive)

## C=CCN1C=CC(=CC=C(C#N)C#N)C=C1
[21]
  EC50: > 100 µM (active)
Leucine aminopeptidase
  IC50: 72.2 µM (active)
[22]
  IC50: > 55.7 µM (not active)
Insulin-degrading enzyme
  IC50: 10.4 µM (not active)

## O=C(CSc1nnc(SCc2ccccc2)s1)N/N=C/c1ccc(Cl)cc1Cl
[23]
  CC50: 38.4 µM (active)

## CN(C)C1C(=O)C(C(N)=O)C(=O)C2(O)C(=O)C3C(=O)c4c(O)cccc4C(C)(O)C3CC12 (centres undefined)
Streptococcus [24]
  EC50: 0.402 µM (active)
